“And” between values parts separate entries of the source, which are not always exact repeats. Equal values may be shown once.
Assays:
Assay type in all cases: in vivo
[1] = Sweetening synergy sensory test: concentration equisweet to sucrose reference solutions in water, expert panel; settings: for Relative sweetening power: ratio sucrose concentration / equisweet concentration; for Equisweet concentration: room temperature
Experimental: A sensory test was performed to assess the sweetening synergism achieved with the composition of the invention (Examples A and B), and this effect was also compared to the effect obtained with analogous compositions containing beta-cyclodextrin (Comparative Examples A and B). Further compositions of the present invention (Examples C, D and E) were also assessed in this sensory test.
A group of expert panellists in sweet descriptors evaluated the sweetness of the different compositions as well as that of the ingredients NHDC, beta-cyclodextrin and gamma-cyclodextrin used alone.
Each evaluated sweetening agent was dissolved in water at different concentrations, at room temperature. The panel then determined, for each product, the concentration that was equisweet to the reference solutions of 1% and 3% sucrose in water. The results are summarized in Table 3 (Examples A and B are abbreviated as Ex. A and Ex. B, respectively, and the Comparative Examples A and B are abbreviated as Comp. A and Comp. B, respectively).
Since beta- and gamma-cyclodextrins are also sweet compounds, the equisweet concentrations of both cyclodextrins were also determined by the test panel to assess their possible contribution to the sweetness of the composition. […] Therefore, as the equisweet concentrations of both cyclodextrins are at least three orders of magnitude larger than those of NHDC, it was concluded that their contribution to the sweetness was negligible.
A more quantitative evaluation of the sweetness synergy provided by the compositions of the present invention was performed by comparing the real measured sweetness of the compositions comprising gamma-cyclodextrin and NHDC with the theoretical sweetness expected from the sum of the individual contribution of each component in the composition.
To this end, the relative sweetening power of each component was first calculated. For comparative purposes, the relative sweetening power of beta-cyclodextrin was also calculated. The relative sweetening power of a given compound, at a given sweetness level, indicates how many times sweeter this compound is than sucrose. It is therefore calculated as the ratio between the concentration of sucrose and the equisweet concentration of each ingredient, for each sweetness level.
From the relative sweetening power of each ingredient, it is possible to calculate the expected sweetness (sucrose equivalence) of a blend of those ingredients, according to Formula I:
Expected sweetness (sucrose equivalence) of a blend C1+C2=Concentration of compound C1×relative sweetening power of compound C1+Concentration of compound C2×relative sweetening power of compound C2
Then, the sweetness synergy of a blend of components can be calculated according to Formula II: […]
As disclosed above in Example 3, the relative sweetening power of a given compound, at a given sweetness level, indicates how many times sweeter than sucrose the compound is, and the value is calculated as the ratio between the concentration of sucrose and the equisweet concentration of the compound.

[2] = Sugar (HFCS) substitution in orange soft drink, triangular test by calibrated panel; settings: orange soft drink sweetened with HFCS
Experimental: A reference orange soft drink sweetened with high fructose corn syrup (HFCS) was prepared, using the ingredients listed in Table 9 (Formula 1). All the percentages in the table are by weight.
For preparing the beverages, the following process was followed. The high fructose corn syrup was weighed in a 1 L beaker. The remaining minor ingredients (sodium benzoate, potassium sorbate, citric acid, orange soda colour and orange soda flavour) were separately weighed in small beakers, and water was added to each of the small beakers and mixed until solubilizing each ingredient. Once dissolved, all those minor ingredients were added to the 1 L beaker with the HFCS. The obtained solution was thoroughly mixed and water was added gradually to 1 Kg.
For assaying the possible substitution of HFCS with NHDC and with the composition of the present invention (Example B), a 0.1% mother solution of NHDC in water was prepared by gradually adding 0.1 g of NHDC to 99.9 g of water, mixing, and heating to 66° C. during 15 minutes until a yellowish solution was obtained; the solution was then left to cool to room temperature. […]
Maximum sugar substitution with NHDC was then determined by replacing increasing amounts of HFCS by NHDC and then passing the reference and the prototype through a triangular test by a calibrated panel.

[3] = Masking bitterness of paracetamol, calibrated test panel, equibitter solution; settings: for Masking effect (real): 5000 ppm paracetamol
Experimental: The bitter masking effect against paracetamol was assayed. The anti-bittering effect was measured as a dose-response profile vs. a solution of paracetamol.
The following substances were assayed: NHDC alone, gamma-cyclodextrin alone and compositions comprising NHDC and gamma-cyclodextrin in a molar ratio 1:3 (Example B), 1.5:1 (Example C), 1:6 (Example D) and 1:10 (Example E).
For evaluating the masking effect of each substance, several aqueous solutions were prepared, each containing 5000 ppm of paracetamol and different concentrations of the tested substance, namely, 5, 25, 50, 75 and 100 ppm.
A calibrated test panel compared each solution with several solutions of paracetamol in water at different concentrations, and determined the equibitter paracetamol solution. The equibitter solution was calculated as the average of all the evaluations of the panel.
The masking effect was then calculated from the reference amount of paracetamol contained in each tested solution (5000 ppm) and the amount of paracetamol in the equibitter solution, using the following formula (Formula III): […]
For calculating the masking synergies between gamma-cyclodextrin and NHDC, first, for each amount of the combination (Examples A-E), using the molecular weight of each component, the amounts of gamma-cyclodextrin and NHDC contained therein were calculated. For example, 100 ppm of Example B contain 13.61 ppm of NHDC and 86.39 ppm of gamma-cyclodextrin. Then, the antibittering contribution of each component in the composition was calculated, on the basis of the data of Table 13. For example, 13.61 ppm of NHDC provide 9.44% masking effect and 86.39 ppm of gamma-cyclodextrin provide 5.46% masking effect (the antibittering effects for each specific concentration was calculated by interpolation of the data points in Table 13). Therefore, the expected masking effect is calculated as the sum of the contributions of each component. For example, the expected masking effect of 100 ppm of Example B is 14.90 (i.e., 9.44 plus 5.46).
Finally, the masking synergy is calculated using Formula IV: […]
The masking effect of Examples C (NHDC:gCD 1.5:1), D (NHDC:gCD 1:6) and E (NHDC:gCD 1:10) was also evaluated. Aqueous solutions were prepared, each one of them containing 5000 ppm of paracetamol and different concentrations of each one of the tested formulations Ex. C-E, namely, 25 and 50 ppm. Results are disclosed in Tables 15 to 17.

## COc1ccc(CCC(=O)c2c(O)cc(O[C@@H]3O[C@H](CO)[C@@H](O)[C@H](O)[C@H]3O[C@@H]3O[C@@H](C)[C@H](O)[C@@H](O)[C@H]3O)cc2O)cc1O [NHDC, 1-[4-[[2-O-(6-Deoxy-α-L-mannopyranosyl)-β-D-glucopyranosyl]oxy]-2,6-dihydroxyphenyl]-3-(3-hydroxy-4-methoxyphenyl)propan-1-one]
[1]; 1% sucrose level
  Relative sweetening power: 2000
[1]; 1% sucrose sweetness level
  NHDC amount contained in the equisweet concentration: (5.0) ppm
[1]; 3% sucrose level
  Relative sweetening power: 1250
[1]; 3% sucrose sweetness level
  NHDC amount contained in the equisweet concentration: (24.0) ppm
[1]; equisweet to 1% sucrose in water
  Equisweet concentration: 5 ppm and 5.0 ppm
[1]; equisweet to 3% sucrose in water
  Equisweet concentration: 24 ppm and 24.0 ppm
[2]
  Amount needed to obtain 10% sugar substitution: 10 ppm
  Maximum sugar substitution without any noticeable difference in a triangular test: 10%
[3]; 5000 ppm paracetamol + 100 ppm tested substance
  Equibitter paracetamol solution: 3266.7 ppm
[3]; tested substance 5 ppm
  Masking effect (real): 6.00%
[3]; tested substance 25 ppm
  Masking effect (real): 14.00%
[3]; tested substance 50 ppm
  Masking effect (real): 15.33%
[3]; tested substance 75 ppm
  Masking effect (real): 27.00%
[3]; tested substance 100 ppm
  Masking effect (real): 34.67%

From US20230054887A1, “SWEETENING AND TASTE-MASKING COMPOSITIONS, PRODUCTS AND USES THEREOF” (HEALTHTECH BIO ACTIVES, S.L.U., priority 2017, published 2023)
